The experiment has as its target T1, human GPR120 (Homo sapiens, UniProt Q5NUL3).
T1 construct: host or cells: HEK293 cells coexpressing Gqi5
T1 sequence (Q5NUL3 1-361): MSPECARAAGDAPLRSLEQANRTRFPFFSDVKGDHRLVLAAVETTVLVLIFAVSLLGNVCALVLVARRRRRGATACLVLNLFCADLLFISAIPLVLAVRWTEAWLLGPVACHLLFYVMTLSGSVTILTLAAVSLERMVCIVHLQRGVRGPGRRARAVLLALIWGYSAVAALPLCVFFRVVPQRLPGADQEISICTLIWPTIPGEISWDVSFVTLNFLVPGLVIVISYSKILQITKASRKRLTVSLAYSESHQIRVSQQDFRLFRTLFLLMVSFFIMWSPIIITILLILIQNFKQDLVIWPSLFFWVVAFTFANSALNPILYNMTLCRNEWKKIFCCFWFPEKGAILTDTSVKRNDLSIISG
The experiment is described as follows: Intracellular Ca2+ (FLIPR Calcium 4, Flexstation) assay in human GPR120 stable HEK293 cell line coexpressing Gqi5. Type of experiment: cell-based. The conditions noted are these: for % Activity at 5 μM: 5 μM compound compared to the maximal activity of GW9508 at 6.7 μM (100%); for EC50: human GPR120 stably expressing cells, 8 concentrations 0.00001 to 20 μM. The procedure, abridged: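 Calcium 4 dye-loaded HEK293 cells expressing N-terminally Flag-tagged human GPR120 with Gqi5 (HBSS/20 mM HEPES, pH 7.4; 50 min, 37 °C). Fluorescence (485/525 nm) read for 90 s after addition of compound at 8 concentrations, 0.00001–20 μM; EC50 from Max−Min change. % activity at 5 μM versus maximal GW9508 response (6.7 μM).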

Where two headings read alike, the source gives them in different places.

26 molecules from patent US20100216827A1 (Metabolex, Inc., priority 2008, published 2010) can be followed below.

One may read the EC50 as the concentration giving half of the maximal effect.

Take `Cc1cc(COc2c(F)cc(CC(C)C(=O)O)cc2F)n(-c2ccc(C(C)C)cc2)n1` (stereo not shown) [Example 76, 3-(3,5-difluoro-4-((1-(4-isopropylphenyl)-3-methyl-1H-pyrazol-5-yl)methoxy)phenyl)-2-methylpropanoic acid]: the “% Activity at 5 μM” value is 85%. The concentration for a half-maximal effect (EC50) (read-out: EC50 ≦ 1 μM) was at most 1000 nM.

In the case of `Cc1cc(COc2c(F)cc(CC(C)C(=O)O)cc2F)n(-c2ccc(C(F)(F)F)cc2)n1` (stereo not shown) [Example 77, 3-(3,5-difluoro-4-((3-methyl-1-(4-(trifluoromethyl)phenyl)-1H-pyrazol-5-yl)methoxy)phenyl)-2-methylpropanoic acid], the “% Activity at 5 μM” value is 95%. The EC50 (read-out: EC50 ≦ 1 μM) is at most 1000 nM.

Consider `Cc1cc(COc2ccc(CC(C)C(=O)O)cc2C(F)(F)F)n(-c2ccc(Cl)cc2)n1` (stereo not shown) [Example 78, 3-(4-((1-(4-chlorophenyl)-3-methyl-1H-pyrazol-5-yl)methoxy)-3-(trifluoromethyl)phenyl)-2-methylpropanoic acid], for which the “% Activity at 5 μM” value is listed as 92%. Further, the concentration giving a half-maximal response (EC50) (read-out: EC50 ≦ 1 μM) was at most 1000 nM.

Take `Cc1cc(COc2c(F)cc(CC(C)C(=O)O)cc2F)n(-c2ccc(C(N)=O)cc2)n1` (stereo not shown) [Example 79, 3-(4-((1-(4-carbamoylphenyl)-3-methyl-1H-pyrazol-5-yl)methoxy)-3,5-difluorophenyl)-2-methylpropanoic acid]: the “% Activity at 5 μM” value stood at 9%. Also, where the note is “read-out: EC50 > 10 μM”, the EC50 is over 10000 nM.

As for `Cc1cc(COc2c(F)cc(CC(C)C(=O)O)cc2F)n(-c2ccc(C#N)cc2)n1` (stereo not shown) [Example 80, 3-(4-((1-(4-cyanophenyl)-3-methyl-1H-pyrazol-5-yl)methoxy)-3,5-difluorophenyl)-2-methylpropanoic acid], the “% Activity at 5 μM” value is recorded as 92%. Besides, the 50% effective concentration (EC50) (read-out: EC50 ≦ 1 μM) was at most 1000 nM.

On to `Cc1cc(COc2c(F)cc(CC(C)C(=O)O)cc2F)n(-c2ccc3c(c2)CCC3)n1` (stereo not shown) [Example 81, 3-(4-((1-(2,3-dihydro-1H-inden-5-yl)-3-methyl-1H-pyrazol-5-yl)methoxy)-3,5-difluorophenyl)-2-methylpropanoic acid], for which the “% Activity at 5 μM” value came to 106%. For the setting “read-out: EC50 ≦ 1 μM”, the EC50 was at most 1000 nM.

Regarding `CCCCc1ccc(-n2nc(C)cc2COc2c(F)cc(CC(C)C(=O)O)cc2F)cc1` (stereo not shown) [Example 82, 3-(4-((1-(4-butylphenyl)-3-methyl-1H-pyrazol-5-yl)methoxy)-3,5-difluorophenyl)-2-methylpropanoic acid], the “% Activity at 5 μM” value amounted to 68%. The 50% effective concentration (EC50) (read-out: EC50 ≦ 1 μM) is at most 1000 nM.

Turning to `CCc1ccc(-n2nc(C)cc2COc2c(F)cc(CC(C)C(=O)O)cc2F)cc1` (stereo not shown) [Example 83, 3-(4-((1-(4-ethylphenyl)-3-methyl-1H-pyrazol-5-yl)methoxy)-3,5-difluorophenyl)-2-methylpropanoic acid], the “% Activity at 5 μM” value came out at 88%. Where the note is “read-out: EC50 ≦ 1 μM”, the EC50 is at most 1000 nM.

As to `Cc1ccc(-n2nc(C)cc2COc2c(F)cc(CC(C)C(=O)O)cc2F)cc1` (stereo not shown) [Example 84, 3-(3,5-difluoro-4-((3-methyl-1-p-tolyl-1H-pyrazol-5-yl)methoxy)phenyl)-2-methylpropanoic acid], the “% Activity at 5 μM” value was 106%. Also, the EC50 (read-out: EC50 ≦ 1 μM) was at most 1000 nM.

Regarding `Cc1cc(COc2c(F)cc(CC(C)C(=O)O)cc2F)n(-c2cccc(C(C)C)c2)n1` (stereo not shown) [Example 85, 3-(3,5-difluoro-4-((1-(3-isopropylphenyl)-3-methyl-1H-pyrazol-5-yl)methoxy)phenyl)-2-methylpropanoic acid], the “% Activity at 5 μM” value came to 95%. Besides, the 50% effective concentration (EC50) (read-out: EC50 ≦ 1 μM) was at most 1000 nM.

For `Cc1cc(COc2ccc(CC(C)C(=O)O)cc2)n(-c2ccc(Cl)cc2)n1` (stereo not shown) [Example 86, 3-(4-((1-(4-chlorophenyl)-3-methyl-1H-pyrazol-5-yl)methoxy)phenyl)-2-methylpropanoic acid], the “% Activity at 5 μM” value came to 98%. Where the note is “read-out: EC50 ≦ 1 μM”, the EC50 is at most 1000 nM.

Consider `Cc1cc(COc2c(F)cc(CC(C)C(=O)O)cc2F)n(-c2ccc(C)c(C)c2)n1` (stereo not shown) [Example 87, 3-(4-((1-(3,4-dimethylphenyl)-3-methyl-1H-pyrazol-5-yl)methoxy)-3,5-difluorophenyl)-2-methylpropanoic acid], for which the “% Activity at 5 μM” value turned out to be 106%. Moreover, the EC50 (read-out: EC50 ≦ 1 μM) was at most 1000 nM.

As to `Cc1cc(COc2c(F)cc(CC(C)C(=O)O)cc2F)n(-c2ccc(C)c(Cl)c2)n1` (stereo not shown) [Example 88, 3-(4-((1-(3-chloro-4-methylphenyl)-3-methyl-1H-pyrazol-5-yl)methoxy)-3,5-difluorophenyl)-2-methylpropanoic acid], the “% Activity at 5 μM” value amounted to 107%. The concentration giving a half-maximal response (EC50) (read-out: EC50 ≦ 1 μM) is at most 1000 nM.

Take `Cc1cc(COc2c(F)cc(CC(C)C(=O)O)cc2F)n(-c2cccc(Cl)c2)n1` (stereo not shown) [Example 89, 3-(4-((1-(3-chlorophenyl)-3-methyl-1H-pyrazol-5-yl)methoxy)-3,5-difluorophenyl)-2-methylpropanoic acid]: the “% Activity at 5 μM” value was 107%. The EC50 (read-out: EC50 ≦ 1 μM) is at most 1000 nM.

As for `CCc1ccc(-n2nc(C)cc2COc2ccc(CC(C)C(=O)O)cc2F)cc1` (stereo not shown) [Example 90, 3-(4-((1-(4-ethylphenyl)-3-methyl-1H-pyrazol-5-yl)methoxy)-3-fluorophenyl)-2-methylpropanoic acid], the “% Activity at 5 μM” value worked out at 99%. Further, where the note is “read-out: EC50 ≦ 1 μM”, the EC50 is at most 1000 nM.

For the molecule `CC(Cc1cc(F)c(OCc2ccnn2-c2ccccc2)c(F)c1)C(=O)O` (stereo not shown) [Example 91, 3-(3,5-difluoro-4-((1-phenyl-1H-pyrazol-5-yl)methoxy)phenyl)-2-methylpropanoic acid], the “% Activity at 5 μM” value was 64%. Moreover, where the note is “read-out: EC50 ≦ 1 μM”, the EC50 is at most 1000 nM.

Turning to `Cc1cc(C)cc(-n2nc(C)cc2COc2c(F)cc(CC(C)C(=O)O)cc2F)c1` (stereo not shown) [Example 92, 3-(4-((1-(3,5-dimethylphenyl)-3-methyl-1H-pyrazol-5-yl)methoxy)-3,5-difluorophenyl)-2-methylpropanoic acid], the “% Activity at 5 μM” value was 58%. For the same molecule, where the note is “read-out: EC50 ≦ 1 μM”, the EC50 is at most 1000 nM.

Turning to `CC(Cc1cc(F)c(OCc2ccnn2-c2ccc(Cl)cc2)c(F)c1)C(=O)O` (stereo not shown) [Example 93, 3-(4-((1-(4-chlorophenyl)-1H-pyrazol-5-yl)methoxy)-3,5-difluorophenyl)-2-methylpropanoic acid], the “% Activity at 5 μM” value is on record as 108%. For the same molecule, the EC50 (read-out: EC50 ≦ 1 μM) is at most 1000 nM.

For the molecule `Cc1cc(COc2c(F)cc(CC(C)C(=O)O)cc2F)n(-c2ccc(Cl)c(C)c2)n1` (stereo not shown) [Example 94, 3-(4-((1-(4-chloro-3-methylphenyl)-3-methyl-1H-pyrazol-5-yl)methoxy)-3,5-difluorophenyl)-2-methylpropanoic acid], the “% Activity at 5 μM” value is listed as 108%. Further, the EC50 (read-out: EC50 ≦ 1 μM) was at most 1000 nM.

In the case of `CCc1ccc(-n2nc(C)cc2COc2ccc(CC(C)C(=O)O)cc2C)cc1` (stereo not shown) [Example 95, 3-(4-((1-(4-ethylphenyl)-3-methyl-1H-pyrazol-5-yl)methoxy)-3-methylphenyl)-2-methylpropanoic acid], the “% Activity at 5 μM” value was found to be 100%. For the same molecule, the EC50 (read-out: EC50 ≦ 1 μM) is at most 1000 nM.

In the case of `CCc1ccc(-n2nc(C(F)(F)F)cc2COc2c(F)cc(CC(C)C(=O)O)cc2F)cc1` (stereo not shown) [Example 96, 3-(4-((1-(4-ethylphenyl)-3-(trifluoromethyl)-1H-pyrazol-5-yl)methoxy)-3,5-difluorophenyl)-2-methylpropanoic acid], the “% Activity at 5 μM” value is recorded as 97%. For the same molecule, under “read-out: EC50 ≦ 1 μM”, the EC50 was at most 1000 nM.

Take `Cc1cc(COc2c(F)cc(CC(C)C(=O)O)cc2F)n(-c2ccc(Br)cc2)n1` (stereo not shown) [Example 97, 3-(4-((1-(4-bromophenyl)-3-methyl-1H-pyrazol-5-yl)methoxy)-3,5-difluorophenyl)-2-methylpropanoic acid]: the “% Activity at 5 μM” value came to 109%. For the same molecule, the EC50 (read-out: EC50 ≦ 1 μM) is at most 1000 nM.

Take `CCc1ccc(-n2nc(C)cc2COc2c(F)cc(C[C@@H](C)C(=O)O)cc2F)cc1` [Example 98, (R)-3-(4-((1-(4-ethylphenyl)-3-methyl-1H-pyrazol-5-yl)methoxy)-3,5-difluorophenyl)-2-methylpropanoic acid]: the “% Activity at 5 μM” value is on record as 104%. Where the note is “read-out: EC50 ≦ 1 μM”, the concentration giving a half-maximal response (EC50) was at most 1000 nM.

For `CCc1ccc(-n2nc(C)cc2COc2c(F)cc(C[C@H](C)C(=O)O)cc2F)cc1` [Example 99, (S)-3-(4-((1-(4-ethylphenyl)-3-methyl-1H-pyrazol-5-yl)methoxy)-3,5-difluorophenyl)-2-methylpropanoic acid], the “% Activity at 5 μM” value is 73%. In addition, the concentration for a half-maximal effect (EC50) (read-out: EC50 ≦ 1 μM) is at most 1000 nM.

Take `CCc1ccc(-n2nccc2COc2c(F)cc(CC(C)C(=O)O)cc2F)cc1` (stereo not shown) [Example 100, 3-(4-((1-(4-ethylphenyl)-1H-pyrazol-5-yl)methoxy)-3,5-difluorophenyl)-2-methylpropanoic acid]: the “% Activity at 5 μM” value is recorded as 109%. The 50% effective concentration (EC50) (read-out: EC50 ≦ 1 μM) was at most 1000 nM.

In the case of `CCc1cc(COc2c(F)cc(CC(C)C(=O)O)cc2F)n(-c2ccc(Cl)cc2)n1` (stereo not shown) [Example 101, 3-(4-((1-(4-chlorophenyl)-3-ethyl-1H-pyrazol-5-yl)methoxy)-3,5-difluorophenyl)-2-methylpropanoic acid], the “% Activity at 5 μM” value amounted to 113%. Also, the EC50 (read-out: EC50 ≦ 1 μM) is at most 1000 nM.
